According to patent publication US11713344B2 (DONG-A ST CO., LTD., priority 2017, dated 2023):

Columns and labels:
Human glucagon receptors = Human glucagon receptors (Homo sapiens, UniProt P47871); experiment: Glucagon receptor activation assay (CRE-luciferase reporter, CHO-K1)
Description: Then, the resulting increased luciferase activity was evaluated as a measurement of the effect on each receptor activation.
After 3 hours of transfection, medium was exchanged to Alpha Minimal Essential Medium (α-MEM) comprising 10% fetal bovine serum (FBS). Next day, the medium was exchanged to α-MEM comprising the analog of the present invention and 0.1% bovine serum albumin (BSA). After 6 hours, dual luciferase assay reagent was added in the same amount as the medium in which the cells were submerged, and firefly luciferase and Renilla luciferase activities were continuously measured. Firefly luciferase activity values were corrected against Renilla luciferase activity to yield transfection efficiency.

Human GLP-1 receptors = Human GLP-1 receptors (Homo sapiens, UniProt P43220); experiment: GLP-1 receptor activation assay (CRE-luciferase reporter, CHO-K1)
Chain of Human GLP-1 receptors (P43220 24-463): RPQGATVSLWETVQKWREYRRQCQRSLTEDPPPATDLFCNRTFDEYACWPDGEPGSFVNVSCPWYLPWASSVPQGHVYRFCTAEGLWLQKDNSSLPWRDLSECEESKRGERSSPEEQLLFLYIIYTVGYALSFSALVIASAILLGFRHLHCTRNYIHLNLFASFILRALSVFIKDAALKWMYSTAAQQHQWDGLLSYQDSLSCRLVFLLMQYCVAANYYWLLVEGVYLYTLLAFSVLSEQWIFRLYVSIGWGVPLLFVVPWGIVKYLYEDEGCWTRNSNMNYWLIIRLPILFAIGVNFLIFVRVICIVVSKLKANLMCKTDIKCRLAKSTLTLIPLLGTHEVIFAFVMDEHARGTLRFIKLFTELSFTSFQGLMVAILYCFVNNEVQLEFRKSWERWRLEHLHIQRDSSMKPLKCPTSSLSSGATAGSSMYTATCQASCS

Chain of Human glucagon receptors (P47871 26-477): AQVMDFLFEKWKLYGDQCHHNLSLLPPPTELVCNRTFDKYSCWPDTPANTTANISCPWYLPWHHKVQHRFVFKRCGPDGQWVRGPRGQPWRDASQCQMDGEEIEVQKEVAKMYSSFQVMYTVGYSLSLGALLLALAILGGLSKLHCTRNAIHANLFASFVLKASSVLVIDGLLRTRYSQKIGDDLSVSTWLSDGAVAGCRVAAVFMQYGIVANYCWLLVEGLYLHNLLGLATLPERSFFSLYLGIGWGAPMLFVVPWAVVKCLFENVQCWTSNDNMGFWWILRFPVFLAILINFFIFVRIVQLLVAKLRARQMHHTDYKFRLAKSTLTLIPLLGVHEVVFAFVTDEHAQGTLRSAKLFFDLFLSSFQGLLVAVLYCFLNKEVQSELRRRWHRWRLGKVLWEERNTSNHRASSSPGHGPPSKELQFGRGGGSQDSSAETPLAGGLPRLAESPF

EC50 (Human glucagon receptors) [nM] | EC50 (Human GLP-1 receptors) [nM] | SMILES
< 0.01 | < 0.01 | CCCCCCCCCCCCCCCCCC(=O)N[C@@H](CCC(=O)NCCOCCOCC(=O)NCCOCCOCC(=O)NCCCC[C@H](NC(=O)[C@H](CC(=O)O)NC(=O)[C@H](CO)NC(=O)[C@@H](NC(=O)[C@H](Cc1ccccc1)NC(=O)[C@@H](NC(=O)CNC(=O)[C@H](CCC(N)=O)NC(=O)C(C)(C)NC(=O)[C@@H](N)Cc1c[nH]cn1)[C@@H](C)O)[C@@H](C)O)C(=O)N[C@@H](CO)C(=O)N[C@@H](CCCCN)C(=O)N[C@@H](Cc1ccc(O)cc1)C(=O)N[C@@H](CC(C)C)C(=O)N[C@@H](CC(=O)O)C(=O)NC(C)(C)C(=O)N[C@@H](CCCNC(=N)N)C(=O)N[C@@H](CCCNC(=N)N)C(=O)N[C@@H](C)C(=O)N[C@@H](CCC(N)=O)C(=O)N[C@@H](CC(=O)O)C(=O)N[C@@H](Cc1ccccc1)C(=O)N[C@H](C(=O)N[C@@H](CCC(N)=O)C(=O)N[C@@H](Cc1c[nH]c2ccccc12)C(=O)N[C@@H](CC(C)C)C(=O)N[C@@H](CCSC)C(=O)N[C@@H](CC(N)=O)C(=O)N[C@H](C(=O)N[C@@H](CCCCN)C(N)=O)[C@@H](C)O)C(C)C)C(=O)O [Compound 6]
< 0.01 | < 0.01 | CCCCCCCCCCCCCCCCCC(=O)N[C@@H](CCC(=O)NCCOCCOCC(=O)NCCOCCOCC(=O)NCCCC[C@H](NC(=O)[C@H](CC(=O)O)NC(=O)[C@H](CO)NC(=O)[C@@H](NC(=O)[C@H](Cc1ccccc1)NC(=O)[C@@H](NC(=O)CNC(=O)[C@H](CCC(N)=O)NC(=O)C(C)(C)NC(=O)[C@@H](N)Cc1c[nH]cn1)[C@@H](C)O)[C@@H](C)O)C(=O)N[C@@H](CO)C(=O)N[C@@H](CCCCN)C(=O)N[C@@H](Cc1ccc(O)cc1)C(=O)N[C@@H](CC(C)C)C(=O)N[C@@H](CC(=O)O)C(=O)N[C@H]1CC(=O)NCC(=O)NCCCC[C@@H](C(=O)N[C@@H](CC(=O)O)C(=O)N[C@@H](Cc2ccccc2)C(=O)N[C@H](C(=O)N[C@@H](CCC(N)=O)C(=O)N[C@@H](Cc2c[nH]c3ccccc23)C(=O)N[C@@H](CC(C)C)C(=O)N[C@@H](CCSC)C(=O)N[C@@H](CC(N)=O)C(=O)N[C@H](C(=O)N[C@@H](CCCCN)C(=O)O)[C@@H](C)O)C(C)C)NC(=O)[C@H](C)NC(=O)[C@H](CCCNC(=N)N)NC(=O)[C@H](CCCNC(=N)N)NC1=O)C(=O)O [Compound 37, H-HAibQGTFTSDZSKYLDDRRAKDFVQWLMNTK-OH]
< 0.01 | < 0.01 | CCCCCCCCCCCCCCCCCC(=O)N[C@@H](CCC(=O)NCCOCCOCC(=O)NCCOCCOCC(=O)NCCCC[C@H](NC(=O)[C@H](CC(=O)O)NC(=O)[C@H](CO)NC(=O)[C@@H](NC(=O)[C@H](Cc1ccccc1)NC(=O)[C@@H](NC(=O)CNC(=O)[C@H](CCC(N)=O)NC(=O)C(C)(C)NC(=O)[C@@H](N)Cc1c[nH]cn1)[C@@H](C)O)[C@@H](C)O)C(=O)N[C@@H](CO)C(=O)N[C@@H](CCCCN)C(=O)N[C@@H](Cc1ccc(O)cc1)C(=O)N[C@@H](CC(C)C)C(=O)N[C@@H](CC(=O)O)C(=O)N[C@H]1CSCc2cccc(c2)CSC[C@@H](C(=O)N[C@@H](CC(=O)O)C(=O)N[C@@H](Cc2ccccc2)C(=O)N[C@H](C(=O)N[C@@H](CCC(N)=O)C(=O)N[C@@H](Cc2c[nH]c3ccccc23)C(=O)N[C@@H](CC(C)C)C(=O)N[C@@H](CCSC)C(=O)N[C@@H](CC(N)=O)C(=O)N[C@H](C(=O)N[C@@H](CCCCN)C(=O)O)[C@@H](C)O)C(C)C)NC(=O)[C@H](C)NC(=O)[C@H](CCCNC(=N)N)NC(=O)[C@H](CCCNC(=N)N)NC1=O)C(=O)O [Compound 22, H-HAibQGTFTSDZSKYLDCRRACDFVQWLMNTK-OH]
< 0.01 | < 0.01 | CCCCCCCCCCCCCCCCCC(=O)N[C@@H](CCC(=O)NCCOCCOCC(=O)NCCOCCOCC(=O)NCCOCCOCC(=O)NCCCC[C@H](NC(=O)[C@H](CC(=O)O)NC(=O)[C@H](CO)NC(=O)[C@@H](NC(=O)[C@H](Cc1ccccc1)NC(=O)[C@@H](NC(=O)CNC(=O)[C@H](CCC(N)=O)NC(=O)C(C)(C)NC(=O)[C@@H](N)Cc1c[nH]cn1)[C@@H](C)O)[C@@H](C)O)C(=O)N[C@@H](CO)C(=O)N[C@@H](CCCCN)C(=O)N[C@@H](Cc1ccc(O)cc1)C(=O)N[C@@H](CC(C)C)C(=O)N[C@@H](CC(=O)O)C(=O)NC(C)(C)C(=O)N[C@@H](CCCNC(=N)N)C(=O)N[C@@H](CCCNC(=N)N)C(=O)N[C@@H](C)C(=O)N[C@@H](CCC(N)=O)C(=O)N[C@@H](CC(=O)O)C(=O)N[C@@H](Cc1ccccc1)C(=O)N[C@H](C(=O)N[C@@H](CCC(N)=O)C(=O)N[C@@H](Cc1c[nH]c2ccccc12)C(=O)N[C@@H](CC(C)C)C(=O)N[C@@H](CCSC)C(=O)N[C@@H](CC(N)=O)C(=O)N[C@H](C(=O)N[C@@H](CCCCN)C(=O)O)[C@@H](C)O)C(C)C)C(=O)O [Compound 10]
> 1 | > 1 | CSCC[C@H](NC(=O)[C@H](CC(C)C)NC(=O)[C@H](Cc1c[nH]c2ccccc12)NC(=O)[C@H](CCC(N)=O)NC(=O)[C@@H](NC(=O)[C@H](Cc1ccccc1)NC(=O)[C@H](CC(=O)O)NC(=O)[C@H](CCC(N)=O)NC(=O)[C@H](C)NC(=O)[C@H](CCCNC(=N)N)NC(=O)[C@H](CCCNC(=N)N)NC(=O)C(C)(C)NC(=O)[C@H](CC(=O)O)NC(=O)[C@H](CC(C)C)NC(=O)[C@H](Cc1ccc(O)cc1)NC(=O)[C@H](CCCCN)NC(=O)[C@H](CO)NC(=O)[C@H](CCCCNC(=O)COCCOCCNC(=O)COCCOCCNC(=O)CC[C@H](NC(=O)CCCCCCCCCCCCCCCCC(=O)O)C(=O)O)NC(=O)[C@H](CC(=O)O)NC(=O)[C@H](CO)NC(=O)[C@@H](NC(=O)[C@H](Cc1ccccc1)NC(=O)[C@@H](NC(=O)CNC(=O)[C@H](CCC(N)=O)NC(=O)C(C)(C)NC(=O)[C@@H](N)Cc1c[nH]cn1)[C@@H](C)O)[C@@H](C)O)C(C)C)C(=O)N[C@@H](CC(N)=O)C(=O)N[C@H](C(=O)N[C@@H](CCCCN)C(=O)O)[C@@H](C)O [Compound 43]
< 0.01 | < 0.01 | CCCCCCCCCCCCCCCCCC(=O)N[C@@H](CCC(=O)NCCOCCOCC(=O)NCCOCCOCC(=O)NCCCC[C@H](NC(=O)[C@H](CC(=O)O)NC(=O)[C@H](CO)NC(=O)[C@@H](NC(=O)[C@H](Cc1ccccc1)NC(=O)[C@@H](NC(=O)CNC(=O)[C@H](CCC(N)=O)NC(=O)C(C)(C)NC(=O)[C@@H](N)Cc1c[nH]cn1)[C@@H](C)O)[C@@H](C)O)C(=O)N[C@@H](CO)C(=O)N[C@@H](CCCCN)C(=O)N[C@@H](Cc1ccc(O)cc1)C(=O)N[C@@H](CC(C)C)C(=O)N[C@@H](CC(=O)O)C(=O)N[C@H]1CCCCNC(=O)c2ccc(cc2)C(=O)NCCCC[C@@H](C(=O)N[C@@H](CC(=O)O)C(=O)N[C@@H](Cc2ccccc2)C(=O)N[C@H](C(=O)N[C@@H](CCC(N)=O)C(=O)N[C@@H](Cc2c[nH]c3ccccc23)C(=O)N[C@@H](CC(C)C)C(=O)N[C@@H](CCSC)C(=O)N[C@@H](CC(N)=O)C(=O)N[C@H](C(=O)N[C@@H](CCCCN)C(=O)O)[C@@H](C)O)C(C)C)NC(=O)[C@H](C)NC(=O)[C@H](CCCNC(=N)N)NC(=O)[C@H](CCCNC(=N)N)NC1=O)C(=O)O [Compound 31, H-HAibQGTFTSDZSKYLDKRRAKDFVQWLMNTK-OH]
> 1 | 0.1 to 1 | CSCC[C@H](NC(=O)[C@H](CC(C)C)NC(=O)[C@H](Cc1c[nH]c2ccccc12)NC(=O)[C@H](CCC(N)=O)NC(=O)[C@@H](NC(=O)[C@H](Cc1ccccc1)NC(=O)[C@H](CC(=O)O)NC(=O)[C@H](CCC(N)=O)NC(=O)[C@H](C)NC(=O)[C@H](CCCNC(=N)N)NC(=O)[C@H](CCCNC(=N)N)NC(=O)C(C)(C)NC(=O)[C@H](CC(=O)O)NC(=O)[C@H](CC(C)C)NC(=O)[C@H](Cc1ccc(O)cc1)NC(=O)[C@H](CCCCN)NC(=O)[C@H](CO)NC(=O)[C@H](CCCCNC(=O)COCCOCCNC(=O)COCCOCCNC(=O)CC[C@H](NC(=O)CCCCCCCCCCCCCCC(=O)O)C(=O)O)NC(=O)[C@H](CC(=O)O)NC(=O)[C@H](CO)NC(=O)[C@@H](NC(=O)[C@H](Cc1ccccc1)NC(=O)[C@@H](NC(=O)CNC(=O)[C@H](CCC(N)=O)NC(=O)C(C)(C)NC(=O)[C@@H](N)Cc1c[nH]cn1)[C@@H](C)O)[C@@H](C)O)C(C)C)C(=O)N[C@@H](CC(N)=O)C(=O)N[C@H](C(=O)N[C@@H](CCCCN)C(=O)O)[C@@H](C)O [Compound 42]
0.1 to 1 | 0.1 to 1 | CCCCCCCCCCCCCCCCCC(=O)N[C@@H](CCC(=O)NCCOCCOCC(=O)NCCOCCOCC(=O)NCCCC[C@H](NC(=O)[C@H](CC(=O)O)NC(=O)[C@H](CO)NC(=O)[C@@H](NC(=O)[C@H](Cc1ccccc1)NC(=O)[C@@H](NC(=O)CNC(=O)[C@H](CCC(N)=O)NC(=O)C(C)(C)NC(=O)[C@@H](N)Cc1c[nH]cn1)[C@@H](C)O)[C@@H](C)O)C(=O)N[C@@H](CO)C(=O)N[C@@H](CCCCN)C(=O)N[C@@H](Cc1ccc(O)cc1)C(=O)N[C@@H](CC(C)C)C(=O)N[C@@H](CC(=O)O)C(=O)N[C@H]1CSSC[C@@H](C(=O)N[C@@H](CC(=O)O)C(=O)N[C@@H](Cc2ccccc2)C(=O)N[C@H](C(=O)N[C@@H](CCC(N)=O)C(=O)N[C@@H](Cc2c[nH]c3ccccc23)C(=O)N[C@@H](CC(C)C)C(=O)N[C@@H](CCSC)C(=O)N[C@@H](CC(N)=O)C(=O)N[C@H](C(=O)N[C@@H](CCCCN)C(=O)O)[C@@H](C)O)C(C)C)NC(=O)[C@H](C)NC(=O)[C@H](CCCNC(=N)N)NC(=O)[C@H](CCCNC(=N)N)NC1=O)C(=O)O [Compound 28, H-HAibQGTFTSDZSKYLDCRRACDFVQWLMNTK-OH]
< 0.01 | < 0.01 | CCCCCCCCCCCCCCCCCC(=O)N[C@@H](CCC(=O)NCCOCCOCC(=O)NCCOCCOCC(=O)NCCCC[C@H](NC(=O)[C@H](CC(=O)O)NC(=O)[C@H](CO)NC(=O)[C@@H](NC(=O)[C@H](Cc1ccccc1)NC(=O)[C@@H](NC(=O)CNC(=O)[C@H](CCC(N)=O)NC(=O)C(C)(C)NC(=O)[C@@H](N)Cc1c[nH]cn1)[C@@H](C)O)[C@@H](C)O)C(=O)N[C@@H](CO)C(=O)N[C@@H](CCCCN)C(=O)N[C@@H](Cc1ccc(O)cc1)C(=O)N[C@@H](CC(C)C)C(=O)N[C@@H](CC(=O)O)C(=O)N[C@H]1CCC(=O)NC2CCC(CC2)C(=O)NCCCC[C@@H](C(=O)N[C@@H](CC(=O)O)C(=O)N[C@@H](Cc2ccccc2)C(=O)N[C@H](C(=O)N[C@@H](CCC(N)=O)C(=O)N[C@@H](Cc2c[nH]c3ccccc23)C(=O)N[C@@H](CC(C)C)C(=O)N[C@@H](CCSC)C(=O)N[C@@H](CC(N)=O)C(=O)N[C@H](C(=O)N[C@@H](CCCCN)C(=O)O)[C@@H](C)O)C(C)C)NC(=O)[C@H](C)NC(=O)[C@H](CCCNC(=N)N)NC(=O)[C@H](CCCNC(=N)N)NC1=O)C(=O)O [Compound 33, H-HAibQGTFTSDZSKYLDERRAKDFVQWLMNTK-OH]
